Assay results reported in ChEMBL document CHEMBL1149774, “Synthesis of N-(5,7-diamino-3-phenyl-quinoxalin-2-yl)-3,4,5-substituted anilines and N-[4[(5,7-diamino-3-phenylquinoxalin-2-yl)amino]benzoyl]-l-glutamic acid diethyl ester: evaluation of in vitro anti-cancer and anti-folate activities” (Eur J Med Chem, 2008).

Assays:
[1] = test system: HOP-92; experiment: Growth inhibition of human HOP92 cells after 48 hrs by SRB staining method; format: functional; settings: HOP-92, 48 h; for TGI: read-out: pTGI (converted)
[2] = test system: COLO 205; experiment: Growth inhibition of human COLO205 cells after 48 hrs by SRB staining method; format: functional; settings: COLO 205, 48 h; for TGI: read-out: pTGI (converted)
[3] = test system: HT-29; experiment: Growth inhibition of human HT29 cells after 48 hrs by SRB staining method; format: functional; settings: HT-29, 48 h; for TGI: read-out: pTGI (converted)
[4] = test system: SNB-19; experiment: Growth inhibition of human SNB19 cells after 48 hrs by SRB staining method; format: functional; settings: SNB-19, 48 h; for TGI: read-out: pTGI (converted)
[5] = test system: Malme-3M; experiment: Growth inhibition of human MALME-3M cells after 48 hrs by SRB staining method; format: functional; settings: for TGI: read-out: pTGI (converted)
[6] = test system: SK-MEL-2; experiment: Growth inhibition of human SK-MEL-2 cells after 48 hrs by SRB staining method; format: functional; settings: SK-MEL-2, 48 h; for TGI: read-out: pTGI (converted)
[7] = test system: SK-MEL-28; experiment: Growth inhibition of human SK-MEL-28 cells after 48 hrs by SRB staining method; format: functional; settings: SK-MEL-28, 48 h; for CC50: read-out: pLC50 (the source's name) (converted); for TGI: read-out: pTGI (converted)
[8] = test system: IGROV-1; experiment: Growth inhibition of human IGROV1 cells after 48 hrs by SRB staining method; format: functional; settings: IGROV-1, 48 h; for TGI: read-out: pTGI (converted)
[9] = test system: A498; experiment: Growth inhibition of human A498 cells after 48 hrs by SRB staining method; format: functional; settings: A498, 48 h; for CC50: read-out: pLC50 (the source's name) (converted); for TGI: read-out: pTGI (converted)
[10] = test system: ACHN; experiment: Growth inhibition of human ACHN cells after 48 hrs by SRB staining method; format: functional; settings: for CC50: read-out: pLC50 (the source's name) (converted); for TGI: read-out: pTGI (converted)
[11] = test system: CAKI-1; experiment: Growth inhibition of human CAKI1 cells after 48 hrs by SRB staining method; format: functional; settings: CAKI-1, 48 h; for CC50: read-out: pLC50 (the source's name) (converted); for TGI: read-out: pTGI (converted)
[12] = test system: UO-31; experiment: Growth inhibition of human UO31 cells after 48 hrs by SRB staining method; format: functional; settings: UO-31, 48 h; for CC50: read-out: pLC50 (the source's name) (converted); for TGI: read-out: pTGI (converted)
[13] = test system: PC-3; experiment: Growth inhibition of human PC3 cells after 48 hrs by SRB staining method; format: functional; settings: PC-3, 48 h; for CC50: read-out: pLC50 (the source's name) (converted); for TGI: read-out: pTGI (converted)
[14] = test system: MDA-MB-231; experiment: Growth inhibition of human MDA-MB-231 cells after 48 hrs by SRB staining method; format: functional; settings: MDA-MB-231, 48 h; for CC50: read-out: pLC50 (the source's name) (converted); for TGI: read-out: pTGI (converted)
[15] = Growth inhibition of human HS 578T cells after 48 hrs by SRB staining method; format: functional; settings: for CC50: read-out: pLC50 (the source's name) (converted); for TGI: read-out: pTGI (converted)
[16] = test system: BT-549; experiment: Growth inhibition of human BT549 cells after 48 hrs by SRB staining method; format: functional; settings: BT-549, 48 h; for CC50: read-out: pLC50 (the source's name) (converted); for TGI: read-out: pTGI (converted)
[17] = test system: T47D; experiment: Growth inhibition of human T47D cells after 48 hrs by SRB staining method; format: functional; settings: for CC50: read-out: pLC50 (the source's name) (converted); for TGI: read-out: pTGI (converted)
[18] = biological target: T1, Dihydrofolate reductase (Homo sapiens, UniProt P00374); experiment: Inhibition of human dihydrofolate reductase
T1 sequence (P00374 whole entry): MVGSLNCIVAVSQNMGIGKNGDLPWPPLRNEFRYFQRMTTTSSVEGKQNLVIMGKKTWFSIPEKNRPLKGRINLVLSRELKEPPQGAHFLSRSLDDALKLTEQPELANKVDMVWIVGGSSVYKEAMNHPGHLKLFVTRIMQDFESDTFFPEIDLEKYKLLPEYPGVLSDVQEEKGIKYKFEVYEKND

[19] = test system: MDA-N; experiment: Growth inhibition of human MDA-N cells after 48 hrs by SRB staining method; format: functional; settings: for CC50: read-out: pLC50 (the source's name) (converted); for TGI: read-out: pTGI (converted)
[20] = test system: A549; experiment: Growth inhibition of human A549 cells after 48 hrs by SRB staining method; format: functional; settings: A549, 48 h; for CC50: read-out: pLC50 (the source's name) (converted); for TGI: read-out: pTGI (converted)
[21] = test system: SW-620; experiment: Growth inhibition of human SW620 cells after 48 hrs by SRB staining method; format: functional; settings: SW-620, 48 h; for CC50: read-out: pLC50 (the source's name) (converted); for TGI: read-out: pTGI (converted)
[22] = test system: CCRF-CEM; experiment: Growth inhibition of human CCRF-CEM cells after 48 hrs by SRB staining method; format: functional; settings: for CC50: read-out: pLC50 (the source's name) (converted); for TGI: read-out: pTGI (converted)
[23] = test system: K562; experiment: Growth inhibition of human K562 cells after 48 hrs by SRB staining method; format: functional; settings: K562, 48 h; for CC50: read-out: pLC50 (the source's name) (converted); for TGI: read-out: pTGI (converted)
[24] = test system: RPMI-8226; experiment: Growth inhibition of human RPMI8226 cells after 48 hrs by SRB staining method; format: functional; settings: RPMI-8226, 48 h; for CC50: read-out: pLC50 (the source's name) (converted); for TGI: read-out: pTGI (converted)
[25] = test system: MOLT-4; experiment: Growth inhibition of human MOLT4 cells after 48 hrs by SRB staining method; format: functional; settings: MOLT-4, 48 h
[26] = biological target: Thymidylate synthase (Homo sapiens, UniProt P04818)
Sequence of Thymidylate synthase (P04818 whole entry): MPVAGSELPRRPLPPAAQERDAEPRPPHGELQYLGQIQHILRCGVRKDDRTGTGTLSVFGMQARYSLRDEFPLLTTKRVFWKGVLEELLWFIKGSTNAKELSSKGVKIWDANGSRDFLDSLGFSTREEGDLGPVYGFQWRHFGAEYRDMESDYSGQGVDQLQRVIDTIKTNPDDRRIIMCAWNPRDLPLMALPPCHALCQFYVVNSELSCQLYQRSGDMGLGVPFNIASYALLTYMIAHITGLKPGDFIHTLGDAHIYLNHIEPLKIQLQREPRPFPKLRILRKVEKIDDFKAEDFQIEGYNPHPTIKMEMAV
Description: Inhibition of human thymidylate synthase

[27] = test system: HCC 2998; experiment: Growth inhibition of human HCC2998 cells after 48 hrs by SRB staining method; format: functional; settings: HCC 2998, 48 h
[28] = test system: SNB-75; experiment: Growth inhibition of human SNB75 cells after 48 hrs by SRB staining method; format: functional; settings: SNB-75, 48 h

COc1cc(Nc2nc3cc(N)cc(N)c3nc2-c2ccccc2)cc(OC)c1OC
GI50 [1]: 2.75 µM
LC50 [1]: 91.2 µM
TGI [1]: 20.9 µM
GI50 [2]: 14.1 µM
LC50 [2]: 52.5 µM
TGI [2]: 26.9 µM
GI50 [3]: 33.1 µM
LC50 [3]: 74.1 µM
TGI [3]: 34.7 µM
GI50 [4]: 33.1 µM
LC50 [4]: > 100 µM
TGI [4]: > 100 µM
GI50 [5]: 12.9 µM
LC50 [5]: 61.7 µM
TGI [5]: 28.2 µM
GI50 [6]: 15.8 µM
LC50 [6]: 77.6 µM
TGI [6]: 35.5 µM
GI50 [7]: 1.45 µM
CC50 [7]: 63.1 µM
TGI [7]: 20.9 µM
GI50 [8]: 15.8 µM
LC50 [8]: > 100 µM
TGI [8]: 57.5 µM
GI50 [9]: 31.6 µM
CC50 [9]: > 100 µM
TGI [9]: > 100 µM
GI50 [10]: 16.6 µM
CC50 [10]: > 100 µM
TGI [10]: 42.7 µM
GI50 [11]: 15.5 µM
CC50 [11]: > 100 µM
TGI [11]: 49 µM
GI50 [12]: 15.1 µM
CC50 [12]: > 100 µM
TGI [12]: 91.2 µM
GI50 [13]: 14.1 µM
CC50 [13]: > 100 µM
TGI [13]: 58.9 µM
GI50 [14]: 11.2 µM
CC50 [14]: 77.6 µM
TGI [14]: 29.5 µM
GI50 [15]: 15.1 µM
CC50 [15]: > 100 µM
TGI [15]: 77.6 µM
GI50 [16]: 17 µM
CC50 [16]: 67.6 µM
TGI [16]: 17 µM
GI50 [17]: 6.03 µM
CC50 [17]: 95.5 µM
TGI [17]: 31.6 µM
Ki [18]: 0.1 µM
GI50 [19]: 10.5 µM
CC50 [19]: 93.3 µM
TGI [19]: 31.6 µM
GI50 [20]: 29.5 µM
CC50 [20]: > 100 µM
TGI [20]: > 100 µM
GI50 [21]: 24 µM
CC50 [21]: > 100 µM
TGI [21]: > 100 µM
GI50 [22]: 4.37 µM
CC50 [22]: > 100 µM
TGI [22]: 41.7 µM
GI50 [23]: 12.6 µM
CC50 [23]: > 100 µM
TGI [23]: 39.8 µM
GI50 [24]: 12.3 µM
CC50 [24]: 85.1 µM
TGI [24]: 32.4 µM
GI50 [25]: 2.57 µM
CC50 ([25]; read-out: pLC50 (the source's name) (converted)): 56.2 µM
TGI ([25]; read-out: pTGI (converted)): 18.2 µM
Ki [26]: 51 µM

COc1ccc(Nc2nc3cc(N)cc(N)c3nc2-c2ccccc2)cc1
GI50 [1]: 20 µM
LC50 [1]: > 100 µM
TGI [1]: 52.5 µM
GI50 [2]: 15.8 µM
LC50 [2]: 53.7 µM
TGI [2]: 29.5 µM
GI50 [27]: 28.2 µM
LC50 [27]: > 100 µM
TGI ([27]; read-out: pTGI (converted)): > 100 µM
GI50 [3]: 24 µM
LC50 [3]: 89.1 µM
TGI [3]: 42.7 µM
GI50 [4]: 33.9 µM
LC50 [4]: > 100 µM
TGI [4]: > 100 µM
GI50 [28]: 14.5 µM
LC50 [28]: > 100 µM
TGI ([28]; read-out: pTGI (converted)): 42.7 µM
GI50 [5]: 15.1 µM
LC50 [5]: 53.7 µM
TGI [5]: 28.2 µM
GI50 [6]: 15.5 µM
LC50 [6]: 63.1 µM
TGI [6]: 31.6 µM
GI50 [7]: 17 µM
CC50 [7]: 55 µM
TGI [7]: 30.2 µM
GI50 [8]: 15.5 µM
LC50 [8]: 83.2 µM
TGI [8]: 35.5 µM
CC50 [9]: > 100 µM
TGI [9]: > 100 µM
GI50 [10]: 15.1 µM
CC50 [10]: > 100 µM
TGI [10]: 43.7 µM
GI50 [11]: 35.5 µM
CC50 [11]: > 100 µM
TGI [11]: > 100 µM
GI50 [12]: 16.6 µM
CC50 [12]: 70.8 µM
TGI [12]: 33.9 µM
GI50 [13]: 20.9 µM
CC50 [13]: > 100 µM
TGI [13]: 47.9 µM
GI50 [14]: 11.5 µM
CC50 [14]: 55 µM
TGI [14]: 25.1 µM
GI50 [15]: 14.5 µM
CC50 [15]: > 100 µM
TGI [15]: 46.8 µM
GI50 [16]: 13.5 µM
CC50 [16]: 75.9 µM
TGI [16]: 31.6 µM
GI50 [17]: 17.8 µM
CC50 [17]: > 100 µM
TGI [17]: 53.7 µM
Ki [18]: 1.8 µM
GI50 [19]: 21.4 µM
CC50 [19]: 60.3 µM
TGI [19]: 36.3 µM
GI50 [20]: 27.5 µM
CC50 [20]: > 100 µM
TGI [20]: > 100 µM
GI50 [21]: 22.4 µM
CC50 [21]: 60.3 µM
TGI [21]: 37.2 µM
GI50 [22]: 12 µM
CC50 [22]: > 100 µM
TGI [22]: > 100 µM
GI50 [23]: 29.5 µM
CC50 [23]: > 100 µM
TGI [23]: > 100 µM
GI50 [24]: 19.1 µM
CC50 [24]: > 100 µM
TGI [24]: > 100 µM
Ki [26]: 6 µM
